# In ChEMBL document CHEMBL1149443, “Synthesis of the novel series of bispyridinium compounds bearing (E)-but-2-ene linker and evaluation of their reactivation activity against chlorpyrifos-inhibited acetylcholinesterase” (Bioorg Med Chem Lett, 2006):
# Target: T1, Acetylcholinesterase (Rattus norvegicus) (UniProt P37136)
# T1 sequence (whole entry): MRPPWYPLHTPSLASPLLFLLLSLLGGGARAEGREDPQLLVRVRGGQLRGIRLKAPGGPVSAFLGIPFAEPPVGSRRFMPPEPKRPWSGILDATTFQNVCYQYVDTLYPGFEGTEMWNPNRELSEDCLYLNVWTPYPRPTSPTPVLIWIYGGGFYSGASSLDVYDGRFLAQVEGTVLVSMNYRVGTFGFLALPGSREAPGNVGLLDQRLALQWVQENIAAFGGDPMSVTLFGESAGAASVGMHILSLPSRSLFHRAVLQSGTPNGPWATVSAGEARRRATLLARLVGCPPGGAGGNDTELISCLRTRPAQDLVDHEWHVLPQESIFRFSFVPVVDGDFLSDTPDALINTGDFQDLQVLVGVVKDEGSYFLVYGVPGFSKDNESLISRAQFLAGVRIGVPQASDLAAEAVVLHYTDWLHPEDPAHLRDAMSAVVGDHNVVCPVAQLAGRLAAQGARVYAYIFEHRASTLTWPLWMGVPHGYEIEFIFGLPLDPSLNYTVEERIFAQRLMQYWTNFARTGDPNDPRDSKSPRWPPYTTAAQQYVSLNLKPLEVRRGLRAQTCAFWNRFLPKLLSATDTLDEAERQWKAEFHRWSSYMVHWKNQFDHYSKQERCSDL
# Assay: Inhibitory activity against AChE from rat brain homogenate
# Format: functional
# Conditions: concentration not given here
compound,measurement,value
CCOP(=S)(OCC)Oc1nc(Cl)c(Cl)cc1Cl,inhibition,95%
